Results from US4410548A, “Propanolamine derivatives” (Reckitt & Colman Products Limited, priority 1980, dated 1983).
Where a name gives a salt, the structure may show the parent alone. Read-outs that look alike come from different tables or passages of the source.

Legend:
β-adrenoreceptor = molecular target: T1, β-adrenoreceptor (Cavia porcellus, UniProt H0W3H1); assay: antagonism of positive chronotropic responses to (-)-isoprenaline in isolated guinea-pig right atria; type: cell-based; conditions: for times (±)-propranolol was more potent as an antagonist than the compound / times less active than (±)-propranolol: β-adrenoreceptor antagonism in vitro
T1 construct: isolated guinea-pig right atria; from tissue; host or cells: isolated guinea-pig right atria
T1 sequence (H0W3H1 1-470): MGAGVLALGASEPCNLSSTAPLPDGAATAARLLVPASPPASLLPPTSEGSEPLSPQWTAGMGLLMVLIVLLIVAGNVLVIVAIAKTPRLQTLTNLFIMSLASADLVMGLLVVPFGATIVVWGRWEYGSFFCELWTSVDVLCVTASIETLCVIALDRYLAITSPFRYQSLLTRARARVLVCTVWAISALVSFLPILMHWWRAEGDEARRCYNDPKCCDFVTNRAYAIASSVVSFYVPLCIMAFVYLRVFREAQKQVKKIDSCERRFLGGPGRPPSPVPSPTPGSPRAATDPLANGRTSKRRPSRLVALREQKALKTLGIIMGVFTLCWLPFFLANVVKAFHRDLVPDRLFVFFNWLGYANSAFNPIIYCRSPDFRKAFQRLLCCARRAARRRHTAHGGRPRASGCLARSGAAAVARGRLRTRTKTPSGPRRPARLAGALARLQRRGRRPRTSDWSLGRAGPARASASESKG
Text: Tolamolol is the approved name for 1-[2-(4-carbamoylphenoxy)ethylamino]-3-(2-methylphenoxy)propan-2-ol.
The values in this table are the mean of 4-8

DOCA hypertensive rats [1] = assay: antihypertensive activity (mean arterial blood pressure) after oral administration in DOCA hypertensive rats; type: in vivo, rat; conditions: for MABP, maximum percent changes: Table 2 (in brackets); for MABP, summation of percent changes: Table 2; for maximal percent changes in MABP: DOCA rats
Method: (b) DOCA = Desoxycorticosterone acetate.
(c) MABP = Mean arterial blood pressure. Negative values represent falls
in blood pressure and conversely positive values increases in blood
pressure. The values of maximum percent changes are mean values taken fro
groups of 5-7 DOCA hypertensive rats.
(d) Values in the final column represent duration of action of the
relative increases and decreases in blood pressure with the respective
treatments. Group mean percent changes are added together for the times o
1, 2, 3 and 5 hours after oral dosage. […]
Values in the final column are summation of percent changes with, in
brackets the maximum percent changes.

DOCA hypertensive rats [2] = assay: heart rate in DOCA hypertensive rats after oral administration; conditions: both doses (5 and 50 mg/kg)
DOCA hypertensive rats [3] = assay: toxicity / deaths seen in the antihypertensive test in DOCA rats; type: in vivo, rat; conditions: oral dose 100 mg/kg
Text: (d) With Example B in the antihypertensive test at an oral dose of 100

[4] = Table 2, isolated guinea-pig atria vs isoprenaline, read-out: β-Antag. pA2 (converted)
[5] = oral dose 50 mg/kg, mean of groups of 5-7, negative = fall
[6] = oral dose 50 mg/kg, MABP, sum of 1, 2, 3 and 5 hours after dosage
[7] = Table 1, isolated guinea-pig atria, mean of 4-8 experiments, read-out: pA2 value against chronotropic responses of isoprenaline (converted)
[8] = oral dose 100 mg/kg, mean of groups of 5-7, negative = fall
[9] = oral dose 100 mg/kg, MABP, sum of 1, 2, 3 and 5 hours after dosage

Kb (β-adrenoreceptor; [7]) | Structure (SMILES) | MABP, maximum percent changes (DOCA hypertensive rats [1]; oral dose 100 mg/kg) | MABP, summation of percent changes (DOCA hypertensive rats [1]; oral dose 100 mg/kg) | maximal percent changes in MABP (DOCA hypertensive rats [1]; [5]) | Summation of percent changes (DOCA hypertensive rats [1]; [6]) | maximal percent changes in MABP (DOCA hypertensive rats [1]; [8]) | Summation of percent changes (DOCA hypertensive rats [1]; [9]) | also measured
 | COc1cc([S+](C)[O-])c(C)cc1OCCNCC(O)COc1ccc(C)cc1 (stereo not shown) [D] | -23% | -82% |  |  |  |  | Kb (β-adrenoreceptor; [4]): 1170 nM
 | CC(C)NCC(O)COc1cccc2ccccc12 (racemic) [(±)-Propranolol] |  |  | +11% | +38% |  |  | effect on blood pressure (DOCA hypertensive rats [1]; 50 mg/kg, p.o.): long-lasting increase in blood pressure; maximal percent changes in MABP (DOCA hypertensive rats [1]; oral dose 5 mg/kg, fall, group mean): -5%; Summation of percent changes (DOCA hypertensive rats [1]; oral dose 5 mg/kg, fall, sum of 1, 2, 3 and 5 hours): -6%; maximal percent changes in MABP (DOCA hypertensive rats [1]; oral dose 5 mg/kg, increase, group mean): +10%; Summation of percent changes (DOCA hypertensive rats [1]; oral dose 5 mg/kg, increase, sum of 1, 2, 3 and 5 hours): +15%; effect on mean blood pressure (DOCA hypertensive rats [1]; oral, 5.0 mg/kg): small increase in mean blood pressure followed by a non-significant transient fall; effect on heart rate (DOCA hypertensive rats [2]): decreased heart rate
17 nM | Cc1ccccc1OCC(O)CNCCOc1ccc(C(N)=O)cc1 (racemic) [(±)-Tolamolol, 1-[2-(4-carbamoylphenoxy)ethylamino]-3-(2-methylphenoxy)propan-2-ol] |  |  | -20% | -47% | -30% | -88% | relative potency as β-adrenoreceptor antagonist (β-adrenoreceptor; in vitro, among the compounds of Table 1): most potent β-adrenoreceptor antagonists tested in vitro; duration of blood pressure effect versus bradycardia (DOCA hypertensive rats [1]; oral, (±)-tolamolol): of a shorter duration than the bradycardia; effect on blood pressure (DOCA hypertensive rats [1]; oral, (±)-tolamolol): falls in blood pressure which were relatively transient
191 nM | COc1cc(S(C)(=O)=O)c(C)cc1OCCNCC(O)COc1ccccc1.O=C(O)C(=O)O (stereo not shown) [Example 6, 1-[2-(2-Methoxy-5-methyl-4-methylsulphonylphenoxy)ethylamino]-3-phenoxypropan-2-ol oxalate salt] |  |  |  |  | -35% | -127% | times (±)-propranolol was more potent as an antagonist than the compound (β-adrenoreceptor): approximately 10 times
 | COc1cc(C)c([S+](C)[O-])cc1OCCNCC(O)COc1ccccc1C (stereo not shown) [A] | -37% | -127% |  |  |  |  | Kb (β-adrenoreceptor; [4]): 3160 nM
28.8 nM | COc1cc2c(cc1OCCNCC(O)COc1ccccc1C)CCCC[S+]2[O-] (stereo not shown) [Example 8, 1-[2-(8-Methoxy-2,3,4,5-tetrahydro-1-benzothiepin-7-oxy)ethylamino]-3-(2-methylphenoxy)propan-2-ol S-oxide oxalate salt] |  |  |  |  | -43% | -161% | times less active than (±)-propranolol (β-adrenoreceptor): 1.5 times
29.5 nM | COc1cc([S+](C)[O-])c(OC)cc1OCCNCC(O)COc1ccccc1C.O=C(O)C(=O)O (stereo not shown) [Example 10, 1-[2-(2,5-Dimethoxy-4-methylsulphinylphenoxy)ethylamino]-3-(2-methylphenoxy)propan-2-ol oxalate salt] |  |  |  |  | -36% | -131% | times less active than (±)-propranolol (β-adrenoreceptor): 1.5 times
 | COc1ccc(OCCNCC(O)COc2ccccc2C)c([S+](C)[O-])c1 (stereo not shown) [Example B] |  |  |  |  |  |  | toxicity (MABP column) (DOCA hypertensive rats [3]; Table 2): toxic; deaths of test rats (DOCA hypertensive rats [3]; antihypertensive test): 5 of the 6 test rats died
380 nM | COc1cc([S+](C)[O-])c(C)cc1OCCNCC(O)COc1ccccc1C.O=C(O)C(=O)O (stereo not shown) [Example 1, 1-[2-(2-Methoxy-5-methyl-4-methylsulphinylphenoxy)ethylamino]-3-(2-methylphenoxy)propan-2-ol oxalate salt] | -47% | -170% | -37% | -137% | -47% | -170% | times (±)-propranolol was more potent as an antagonist than the compound (β-adrenoreceptor): ~20 times
 | COc1cc([S+](C)[O-])c(C)cc1OCCNCC(O)COc1cccc(C)c1 (stereo not shown) [C] | -8% | -23% |  |  |  |  | pD'2 (β-adrenoreceptor; Table 2, in pA2 column, negative log molar concentration depressing maximum agonist response by 50%, noncompetitive): 4.3; nature of interaction with isoprenaline (β-adrenoreceptor; adrenoreceptor antagonism test): noncompetitive in nature
